Results reported in patent publication US20260315604A1, “OTUB1 Small-Molecule Binders and OTUB1-recruiting Deubiquitinase-targeting Chimeras (DUBTACs)” (ICAHN SCHOOL OF MEDICINE AT MOUNT SINAI, priority 2023, published 2026).

Target: T1, Human OTUB1 wild-type (Homo sapiens, UniProt Q96FW1)
T1 construct: His tag (N); made in house; host or cells: E. coli BL21-CodonPlus (DE3)-RIPIL
Assay: Covalent modification of OTUB1 (adduct formation), mass spectrometry-based assay (OTUB1 covalent binders; selected CFTR or cGAS based bivalent compounds)
Type: binding
Conditions: covalent adduct formation with OTUB1 protein
Summary of the method: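 His-tagged human OTUB1 (10 μM), E. coli-expressed, incubated with compound (2500 μM) in 50 mM Tris-HCl pH 7.5, 150 mM NaCl, 0.5 mM TCEP for 1 h at room temperature. Adduct detected by intact-protein LC/ESI-TOF mass spectrometry after buffer exchange; duplicates.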

T1 sequence (Q96FW1 whole entry): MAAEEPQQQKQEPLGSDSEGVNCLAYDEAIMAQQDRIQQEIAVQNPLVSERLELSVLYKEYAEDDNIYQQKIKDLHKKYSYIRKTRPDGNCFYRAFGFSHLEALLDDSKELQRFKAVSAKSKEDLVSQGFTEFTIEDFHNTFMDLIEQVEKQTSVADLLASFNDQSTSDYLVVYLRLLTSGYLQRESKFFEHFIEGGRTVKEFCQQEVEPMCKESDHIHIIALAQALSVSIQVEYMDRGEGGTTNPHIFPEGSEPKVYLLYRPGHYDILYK

| SMILES | % of OTUB1 modified [%] |
| --- | --- |
| Cc1ccc(C(=O)NC2CN(C(=O)/C=C/CN(C)C)C2)s1 [XS190-9, (E)-N-(1-(4-(dimethylamino)but-2-enoyl)azetidin-3-yl)-5-methylthiophene-2-carboxamide] | 38 |
| Cc1cccc(N2CC3CCC(C2=O)N3C(=O)/C=C/CN(C)C)c1 (centres unmarked) [XS190-182, (E)-8-(4-(dimethylamino)but-2-enoyl)-3-(m-tolyl)-3,8-diazabicyclo[3.2.1]octan-2-one] | 90 |
| Cc1cccc(N2CC3CCC(C2=O)N3C(=O)/C=C/CN(C)C)n1 (centres unmarked) [XS190-181, (E)-8-(4-(dimethylamino)but-2-enoyl)-3-(6-methylpyridin-2-yl)-3,8-diazabicyclo[3.2.1]octan-2-one] | 30 |
| Cc1cccc(N2CCN(C(=O)CCl)CC2=O)n1 [XS165-120, 4-(2-chloroacetyl)-1-(6-methylpyridin-2-yl)piperazin-2-one] | 100 |
| Cc1ccc(NC(=O)C2CCN(C(=O)/C=C/CN(C)C)C2)s1 (centres unmarked) [XS175-133, (E)-1-(4-(dimethylamino)but-2-enoyl)-N-(5-methylthiophen-2-yl)pyrrolidine-3-carboxamide] | 2 |
| Cc1ccc(C(=O)N2CCC(NC(=O)/C=C/CN(C)C)CC2)s1 [XS185-65, (E)-4-(dimethylamino)-N-(1-(5-methylthiophene-2-carbonyl)piperidin-4-yl)but-2-enamide] | 1 |
| CN(C)C/C=C/C(=O)N1CC2(CCN(c3cc4ccccc4s3)CC2)C1 [XS185-147, (E)-1-(7-(benzo[b]thiophen-2-yl)-2,7-diazaspiro[3.5]nonan-2-yl)-4-(dimethylamino)but-2-en-1-one] | 15 |
| Cc1ccc(C(=O)N2C[C@H]3C[C@@H]2CN3C(=O)/C=C/CN(C)C)s1 [XS190-81, (E)-4-(dimethylamino)-1-((1R,4R)-5-(5-methylthiophene-2-carbonyl)-2,5-diazabicyclo[2.2.1]heptan-2-yl)but-2-en-1-one] | 10 |
| CN(C)C/C=C/C(=O)N1C2CC1CN(C(=O)c1ccccc1)C2 [XS190-126, (E)-1-(3-benzoyl-3,6-diazabicyclo[3.1.1]heptan-6-yl)-4-(dimethylamino)but-2-en-1-one] | 49 |
| Cc1cccc(N2CCN(C(=O)/C=C/CN(C)C)CC2=O)c1 [XS165-99, (E)-4-(4-(dimethylamino)but-2-enoyl)-1-(n-tolyl)piperazin-2-one] | 38 |
| CC(=O)N1CCC(C(=O)N2CC3CC(C2)N3C(=O)/C=C/CN(C)C)CC1 [XS197-6, (E)-1-(3-(1-acetylpiperidine-4-carbonyl)-3,6-diazabicyclo[3.1.1]heptan-6-yl)-4-(dimethylamino)but-2-en-1-one] | 22 |
| Cc1ccc(C(=O)NCC2CCN2C(=O)/C=C/CN(C)C)s1 (centres unmarked) [XS190-127, (E)-N-((1-(4-(dimethylamino)but-2-enoyl)azetidin-2-yl)methyl)-5-methylthiophene-2-carboxamide] | 15 |
| C=CC(=O)N1C2CCC1CN(c1cccc(C)c1)C2 [XS165-33, 1-(3-(m-tolyl)-3,8-diazabicyclo[3.2.1]octan-8-yl)prop-2-en-1-one] | 5 |
| CC(=O)N1CCc2sc(C(=O)N3CC4CC(C3)N4C(=O)/C=C/CN(C)C)cc2C1 [XS190-69, (E)-1-(3-(5-acetyl-4,5,6,7-tetrahydrothieno[3,2-c]pyridine-2-carbonyl)-3,6-diazabicyclo[3.1.1]heptan-6-yl)-4-(dimethylamino)but-2-en-1-one] | 88 |
| Cc1ccc(CN2CC3CC(C2)N3C(=O)/C=C/CN(C)C)s1 [XS190-158, (E)-4-(dimethylamino)-1-(3-((5-methylthiophen-2-yl)methyl)-3,6-diazabicyclo[3.1.1]heptan-6-yl)but-2-en-1-one] | 8 |
| CN(C)C/C=C/C(=O)N1C2CC1CN(C(=O)C1CCCC1)C2 [XS190-128, (E)-1-(3-(cyclopentanecarbonyl)-3,6-diazabicyclo[3.1.1]heptan-6-yl)-4-(dimethylamino)but-2-en-1-one] | 47 |
| Cc1csc(N2CCN(C(=O)/C=C/CN(C)C)CC2=O)c1 [XS175-46, (E)-4-(4-(dimethylamino)but-2-enoyl)-1-(4-methylthiophen-2-yl)piperazin-2-one] | 90 |
| Cc1ccc(C(=O)N2CC3(CN(C(=O)/C=C/CN(C)C)C3)C2)s1 [XS185-69, (E)-4-(dimethylamino)-1-(6-(5-methylthiophene-2-carbonyl)-2,6-diazaspiro[3.3]heptan-2-yl)but-2-en-1-one] | 30 |
| Cc1ccc(C(=O)N2CC3CC(C2)N3C(=O)/C=C/CN(C)C)o1 [XS190-157, (E)-4-(dimethylamino)-1-(3-(5-methylfuran-2-carbonyl)-3,6-diazabicyclo[3.1.1]heptan-6-yl)but-2-en-1-one] | 80 |
| Cc1ccc(C(=O)N2C[C@@H]3C[C@H]2CN3C(=O)/C=C/CN(C)C)s1 [XS190-80, (E)-4-(dimethylamino)-1-((1S,4S)-5-(5-methylthiophene-2-carbonyl)-2,5-diazabicyclo[2.2.1]heptan-2-yl)but-2-en-1-one] | 7 |
| Cc1csc(NC(=O)C2CCN(C(=O)/C=C/CN(C)C)CC2)c1 [XS175-173, (E)-1-(4-(dimethylamino)but-2-enoyl)-N-(4-methylthiophen-2-yl)piperidine-4-carboxamide] | 3 |
| CC1CCC(C(=O)N2CC3CC(C2)N3C(=O)/C=C/CN(C)C)C1 (centres unmarked) [XS190-170, (E)-4-(dimethylamino)-1-(3-(3-methylcyclopentane-1-carbonyl)-3,6-diazabicyclo[3.1.1]heptan-6-yl)but-2-en-1-one] | 55 |
| Cc1cc(N2CCN(C(=O)/C=C/CN(C)C)CC2=O)sc1C [XS175-70, (E)-4-(4-(dimethylamino)but-2-enoyl)-1-(4,5-dimethylthiophen-2-yl)piperazin-2-one] | 90 |
| CN(C)C/C=C/C(=O)N1CCN(c2cc3ccccc3o2)C(=O)C1 [XS185-78, (E)-1-(benzofuran-2-yl)-4-(4-(dimethylamino)but-2-enoyl)piperazin-2-one] | 40 |

The next lines start with the values.

| % of OTUB1 modified [%] | SMILES |
| --- | --- |
| 20 | Cc1cnc(NC(=O)C2(C)CN(C(=O)/C=C/CN(C)C)C2)s1 [XS209-38, (E)-1-(4-(dimethylamino)but-2-enoyl)-3-methyl-N-(5-methylthiazol-2-yl)azetidine-3-carboxamide] |
| 90 | Cc1ccc(C(=O)NC2CC(NC(=O)C#CCN(C)C)C2)s1 (centres unmarked) [XS224-148, N-(3-(4-(dimethylamino)but-2-ynamido)cyclobutyl)-5-methylthiophene-2-carboxamide] |
| 10 | Cc1cnc(NC(=O)C2(C)CN(C(=O)/C=C/CN(C)C)C2)o1 [XS209-23, (E)-1-(4-(dimethylamino)but-2-enoyl)-3-methyl-N-(5-methyloxazol-2-yl)azetidine-3-carboxamide] |
| 2 | Cc1ccc(NC(=O)C2CC3CCC(C2)N3C(=O)/C=C/CN(C)C)s1 (centres unmarked) [XS209-122, (E)-8-(4-(dimethylamino)but-2-enoyl)-N-(5-methylthiophen-2-yl)-8-azabicyclo[3.2.1]octane-3-carboxamide] |
| 73 | Cc1ccc(C(=O)NC2CN(C(=O)C#CCN(C)C)C2)s1 [XS224-150, N-(1-(4-(dimethylamino)but-2-ynoyl)azetidin-3-yl)-5-methylthiophene-2-carboxamide] |
| 15 | Cc1cnc(C(=O)N2CC3CC(C2)N3C(=O)/C=C/CN(C)C)o1 [XS209-92, (E)-4-(dimethylamino)-1-(3-(5-methyloxazole-2-carbonyl)-3,6-diazabicyclo[3.1.1]heptan-6-yl)but-2-en-1-one] |
| 98 | Cc1ccc(N2CC3CCC(C2=O)N3C(=O)C#CC(C)(C)N(C)C)s1 (centres unmarked) [XS209-74, 8-(4-(dimethylamino)-4-methylpent-2-ynoyl)-3-(5-methylthiophen-2-yl)-3,8-diazabicyclo[3.2.1]octan-2-one] |
| 30 | CC(=O)N1CCC2(CC1)CC(C(=O)N1CC3CC(C1)N3C(=O)/C=C/CN(C)C)C2 [XS197-176, (E)-1-(3-(7-acetyl-7-azaspiro[3.5]nonane-2-carbonyl)-3,6-diazabicyclo[3.1.1]heptan-6-yl)-4-(dimethylamino)but-2-en-1-one] |
| 35 | CC(=O)N1CC2(CCC(C(=O)N3CC4CC(C3)N4C(=O)/C=C/CN(C)C)CC2)C1 [XS209-54, (E)-1-(3-(2-acetyl-2-azaspiro[3.5]nonane-7-carbonyl)-3,6-diazabicyclo[3.1.1]heptan-6-yl)-4-(dimethylamino)but-2-en-1-one] |
| 8 | CC(C)C(=O)N1CC2CC(C1)N2C(=O)/C=C/CN(C)C [XS197-50, (E)-4-(dimethylamino)-1-(3-isobutyryl-3,6-diazabicyclo[3.1.1]heptan-6-yl)but-2-en-1-one] |
| 20 | Cc1ccc(C(=O)Nc2ccc(NC(=O)/C=C/CN(C)C)cc2)s1 [XS209-165, (E)-N-(4-(4-(dimethylamino)but-2-enamido)phenyl)-5-methylthiophene-2-carboxamide] |
| 75 | CN(C)C(C)(C)C#CC(=O)N1CC(C(=O)Nc2cc3c(s2)CCCC3)C1 [XS224-109, 1-(4-(dimethylamino)-4-methylpent-2-ynoyl)-N-(4,5,6,7-tetrahydrobenzo[b]thiophen-2-yl)azetidine-3-carboxamide] |
| 85 | CN(C)C/C=C/C(=O)N1C2CC1CN(C(=O)c1ccc(N3CCN(C)CC3)s1)C2 [XS209-185, (E)-4-(dimethylamino)-1-(3-(5-(4-methylpiperazin-1-yl)thiophene-2-carbonyl)-3,6-diazabicyclo[3.1.1]heptan-6-yl)but-2-en-1-one] |
| 75 | CN(C)C/C=C/C(=O)N1C2CCC1C(=O)N(C1CCC1)C2 (centres unmarked) [XS197-70, (E)-3-cyclobutyl-8-(4-(dimethylamino)but-2-enoyl)-3,8-diazabicyclo[3.2.1]octan-2-one] |
